Experimental data from patent US20260102387A1, “IMMUNOSUPPRESSIVE COMPOUNDS” (UNIVERSITÄT BASEL, priority 2022, published 2026).

Columns and labels:
BRD3 = target: T1, BRD3 (Rattus norvegicus, UniProt D3ZWU1); assay: Thermal Proteome Profiling in RBL cells: BRD3; assay type: binding; conditions: 6 μM
T1 construct: endogenous in cells; host or cells: RBL (rat basophil leukemia) cells
Protocol: To identify the target of the coronin 1 modulatory compounds, Thermal Proteome Profiling (TPP), a methodology based on the property of proteins to alter their thermal stability upon interactions with small molecules (Savitski, M. M., et al., Science, 2014. 346(6205): p. 1255784), was employed. To that end, Rat Basophil Leukemia (RBL) cells were incubated with the compound 12e followed by gradient thermal denaturation (37/41/44/47/50/53/56/59/63/67 degree C.) and mass spectrometric assessment of proteins that get either stabilized or destabilized upon interacting with the compound performed. […]
Thermal proteome profiling was performed as described (Savitski, M. M., et al., Science, 2014. 346(6205): p. 1255784). In brief, RBL cells (50 millions/condition) were incubated with the vehicle DMSO or the compound 12e at 6, 3 or 0 μM concentration for a period of 1 h at the end of which, the cells were washed in ice cold PBS, counted and subjected to thermal denaturation (37/41/44/47/50/53/56/59/63/67° C.) for 3 minutes, lysed by freeze thawing in liquid nitrogen and supernatant containing the soluble proteins separated by centrifugation at 100,000 g for 30 minutes. Equal volumes of the supernatant were taken, subjected to tryptic digestion and labelling with 10 plex-TMT (Thermo Fisher) and the labelled peptides analyzed and quantitated using mass spectrometry (FIG. 13).

BRD3 BD1 = target: T2, BRD3 BD1 (Homo sapiens, UniProt Q15059); assay: Bromoscan (Eurofins) binding: BRD3 BD1
T2 construct: T7 phage display (bromodomain fused to phage); purchased Eurofins (bromoscan service); host or cells: E. coli host derived from BL21, T7 phage
Protocol: (§1) Following the initial data from TPP, to further confirm the interaction of compound with BRD3, an in-vitro assay system named bromoscan (Eurofins) was employed to analyse the affinity of the (4S,7R)-configurated compound 12e against the two bromodomains of BRD3.
T7 phage strains displaying bromodomains were grown in 24-well blocks in an E. coli host derived from the BL21 strain. E. coli were grown to log-phase and infected with T7 phage from a frozen stock (multiplicity of infection=0.4) and incubated with shaking at 32° C. until lysis (90-150 minutes). The lysates were centrifuged (5,000×g) and filtered (0.2 μm) to remove cell debris. Streptavidin-coated magnetic beads were treated with biotinylated small molecule or acetylated peptide ligands for 30 minutes at room temperature to generate affinity resins for bromodomain assays. The liganded beads were blocked with excess biotin and washed with blocking buffer (SeaBlock (Pierce), 1% BSA, 0.05% Tween 20, 1 mM DTT) to remove unbound ligand and to reduce non-specific phage binding. […] Test compounds were prepared as 1000× stocks in 100% DMSO. Kds were determined using an 11-point 3-fold compound dilution series with one DMSO control point. All compounds for Kd measurements are distributed by acoustic transfer (non-contact dispensing) in 100% DMSO. […] The bromodomain concentration in the eluates was measured by qPCR. […]

[1] = tested on: human peripheral blood mononuclear cells; assay: Mixed Lymphocyte Reaction, tritiated-thymidine uptake; assay type: cell-based; conditions: human PBMCs
Protocol: For assessment of the suppression of alloresponses by coronin 1 modulators using the MLR methodology, heparinized or EDTA treated blood or buffy coat from two healthy volunteers were enriched for […] using the standard Histopaque 1.077 gradient centrifugation methodology as detailed above. Post enrichment, one of the donors PBMCs was considered as “responders” and the other as “stimulators”. The “stimulators” were treated with mitomycin to prevent proliferation while the “responders” PBMCs were left untreated. The stimulator and responder PBMCs were washed extensively with plain RPMI and subsequently counted and seeded in 96 well plate at a density of 0.1 million cells/well each (responders plus stimulators=0.2 million cells/well) in a volume of 200 μl RPMI-1640 (Sigma) containing 1× penicillin and streptomycin (Gibco), 2 mM L-glutamine (Gibco) and 10% heat inactivated FCS (PAA) along with the vehicle (DMSO) or coronin 1 expression inhibitor at indicated concentrations. Cells were incubated in a 37° C. humidified incubator with a 5% CO2 for five days with the expression inhibitor and at the end of which 0.5 μCi of tritiated thymidine was added to all wells and further incubated for 20 h followed by harvesting on a GF/C filter and measuring the DNA-incorporated counts using a Packard instrument as a measure of immune responses (FIG. 10).

RBL cells = assay: Cell viability by live-dead staining (cytotoxicity), flow cytometry; assay type: cell-based, Rat; conditions: Rattus norvegicus, RBL, cell viability via live/dead staining, 48-65 h, read-out: EC50 Toxicity
How it was run: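 RBL cells with coronin 1 promoter-GFP, mixed 1:1 with CMV promoter-RFP RBL cells, exposed to compound 48-65 h. Flow cytometry read RFP fluorescence for non-specific promoter inhibition and live-dead staining for cytotoxicity. EC50 values derived; cycloheximide positive control, DMSO negative.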

BRD3 BD2 = target: T3, BRD3 BD2 (Homo sapiens, UniProt Q15059); assay: Bromoscan (Eurofins) binding: BRD3 BD2
T3 construct: T7 phage display (bromodomain fused to phage); purchased Eurofins (bromoscan service); host or cells: E. coli host derived from BL21, T7 phage
Protocol: as §1
T7 phage strains displaying bromodomains were grown in 24-well blocks in an E. coli host derived from the BL21 strain. E. coli were grown to log-phase and infected with T7 phage from a frozen stock (multiplicity of infection=0.4) and incubated with shaking at 32° C. until lysis (90-150 minutes). The lysates were centrifuged (5,000×g) and filtered (0.2 μm) to remove cell debris. Streptavidin-coated magnetic beads were treated with biotinylated small molecule or acetylated peptide ligands for 30 minutes at room temperature to generate affinity resins for bromodomain assays. The liganded beads were blocked with excess biotin and washed with blocking buffer (SeaBlock (Pierce), 1% BSA, 0.05% Tween 20, 1 mM DTT) to remove unbound ligand and to reduce non-specific phage binding. […] Test compounds were prepared as 1000× stocks in 100% DMSO. Kds were determined using an 11-point 3-fold compound dilution series with one DMSO control point. All compounds for Kd measurements are distributed by acoustic transfer (non-contact dispensing) in 100% DMSO. The compounds were then diluted directly into the assays such that the final concentration of DMSO was 0.09%. All reactions performed in polypropylene 384-well plates. Each was a final volume of 0.02 ml. The assay plates were incubated at room temperature with shaking for 1 hour and the affinity beads were washed with wash buffer (1×PBS, 0.05% Tween 20). The beads were then resuspended in elution buffer (1×PBS, 0.05% Tween 20, 2 μM non-biotinylated affinity ligand) and incubated at room temperature with shaking for 30 minutes. The bromodomain concentration in the eluates was measured by qPCR. The bromoscan analysis was done at Eurofins (FIG. 15).

coronin 1 = assay: Western blotting of coronin 1 protein levels in RBL cells; assay type: cell-based, Rat; conditions: 2 μg/ml, RBL cells
Protocol: buffer with 0.2% SDS containing protease and phosphatase inhibitors (Roche) at 4° C., followed by protein determination (BCA, Pierce) and SDS-PAGE with equal protein amounts transferred onto nitrocellulose and probed using antibodies against the indicated proteins (actin and coronin 1) followed by HRP-labeled secondary antibodies and developed using an enhanced chemi-luminescence imager (Fuji) (FIG. 3C).

coronin 1 promoter = assay: EC50 analysis for coronin 1 promoter driven GFP inhibition by flow cytometry in RBL cells; assay type: cell-based; conditions: for EC50: RBL, RBL cells, 48-65 h, flow cytometry
How it was run: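 RBL cells carrying coronin 1 promoter–GFP, mixed with CMV promoter–RFP cells, exposed to compounds 48–65 h and analyzed by flow cytometry with live/dead staining. EC50 derived from GFP inhibition, with RFP and viability as nonspecific and toxicity counter-reads; cycloheximide and DMSO as controls, relative potency normalized to a reference compound.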

[2] = tested on: imiquimod-induced psoriasis; assay: Imiquimod-induced mouse model for psoriasis; assay type: in vivo, mice (Balb/c); conditions: 50 mg/kg body weight, twice daily, topical route, day 4
Protocol: Wild type mice (Balb/c strain, 8-12 weeks), were age and sex matched. The dorsal skin was shaved with a trimmer on an area of ˜2 cm^2 and subjected to topical application of 5% imiquimod cream (Aldara) starting from day 1 and continued for up to 7 days in the morning. For compound administration, mice were applied topically with the compound, twice a day starting 48 hours before the first Imiquimod application and all along of the experiment up to day 7. In the morning, compound was applied 2 h prior to the imiquimod application (FIG. 12A). Mice were scored every day for the inflammatory lesion and general health status as follows: […]

CMV promoter = assay: EC50 analysis for CMV promoter driven RFP inhibition (non-specific activity) by flow cytometry in RBL cells; assay type: cell-based, cytomegalovirus; conditions: 48-65 h, read-out: EC50 RFP alteration
Protocol: RBL cells expressing GFP under coronin 1 promoter and optionally with RBL cells expressing RFP under CMV promoter were mixed in equal numbers and incubated with the compounds at indicated concentrations for 48-65 h and analyzed by flow cytometry for alteration in coronin 1 promoter (GFP fluorescence), CMV promoter (RFP fluorescence) values. In addition, the cells were labelled with live-dead marker for assessing cell viability status by flow cytometry. Cycloheximide (CHX) serves as positive control and DMSO serves as negative controls. Effective Concentration (EC50) values for coronin 1 promoter inhibition via GFP fluorescence analysis, non-specific promoter inhibition via CMV promoter driven-RFP fluorescence analysis and cell viability via live/dead staining as a measure for toxicity in flow cytometry for compounds (10-22 and 50a-65a) are shown in Table 6 and Table 7. Based on the EC50 analysis of the inhibition of coronin 1 promoter driven GFP fluorescence the (4S,7R)-configurated eutomers were identified (Structures FIG. 9A-C). This is exemplified for compounds containing two stereocenters by eutomers 11c and 13a. […] Subsequent EC50 evaluations (Table 7) were performed with compound 13a as standard for relative potency normalized to a value of 1.00 (relative potency calculated as [EC50 GFP inhibition 13a]/[EC50 GFP inhibition compound of interest]).

T3 sequence (Q15059 306-415 limits assumed): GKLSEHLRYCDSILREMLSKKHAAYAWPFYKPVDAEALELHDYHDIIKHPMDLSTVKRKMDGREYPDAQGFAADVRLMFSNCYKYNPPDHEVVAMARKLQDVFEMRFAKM
T2 sequence (Q15059 34-140 limits assumed): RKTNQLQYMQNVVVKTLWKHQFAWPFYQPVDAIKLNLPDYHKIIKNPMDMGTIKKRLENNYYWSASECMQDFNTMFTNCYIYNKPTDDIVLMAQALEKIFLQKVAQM
T1 sequence (D3ZWU1 1-725): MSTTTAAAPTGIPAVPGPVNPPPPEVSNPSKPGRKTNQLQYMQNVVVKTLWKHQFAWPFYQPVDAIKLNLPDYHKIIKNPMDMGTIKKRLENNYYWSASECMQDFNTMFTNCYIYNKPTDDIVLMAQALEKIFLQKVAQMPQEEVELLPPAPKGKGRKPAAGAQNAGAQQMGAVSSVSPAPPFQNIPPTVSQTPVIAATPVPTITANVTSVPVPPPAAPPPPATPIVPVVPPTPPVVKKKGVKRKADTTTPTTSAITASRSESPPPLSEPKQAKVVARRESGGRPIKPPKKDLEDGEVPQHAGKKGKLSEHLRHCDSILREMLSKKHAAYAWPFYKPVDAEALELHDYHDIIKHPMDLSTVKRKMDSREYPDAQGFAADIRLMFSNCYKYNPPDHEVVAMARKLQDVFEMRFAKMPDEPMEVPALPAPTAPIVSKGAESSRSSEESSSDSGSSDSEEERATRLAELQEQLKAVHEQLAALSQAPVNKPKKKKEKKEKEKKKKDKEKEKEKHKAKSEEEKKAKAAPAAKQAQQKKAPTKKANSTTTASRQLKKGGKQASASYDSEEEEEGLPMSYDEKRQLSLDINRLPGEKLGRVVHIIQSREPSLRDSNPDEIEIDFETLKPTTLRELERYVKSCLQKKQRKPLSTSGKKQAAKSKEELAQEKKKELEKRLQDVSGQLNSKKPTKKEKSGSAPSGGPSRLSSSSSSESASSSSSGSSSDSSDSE

COc1ccccc1[C@H]1CC(=O)C2=C(C1)NC(C)=C(C(=O)OC[C@@H]1CCCO1)[C@H]2c1cccc(O)c1 [12e, tetrahydro-2-furanylmethyl (4S, 7R)-4-(3-hydroxyphenyl)-7-(2-methoxyphenyl)-2-methyl-5-oxo-1,4,5,6,7,8-hexahydro-3-quinolinecarboxylate]
increase of thermal denaturation of BRD3 (BRD3): over four degrees Celsius
Kd (BRD3 BD1): ~200 nM
Mixed Lymphocyte Responses (tritiated-thymidine uptake) [1]: inhibition
EC50 (RBL cells): > 20000 nM
Kd (BRD3 BD2): ~10 nM
relative affinity for BRD3 bromodomains BD1 and BD2 (BRD3 BD2): higher affinity for the BD2 domain
coronin 1 depletion by Western blot (coronin 1): showed coronin 1 depletion
EC50 (coronin 1 promoter): 70 nM

COc1ccccc1[C@H]1CC(=O)C2=C(C1)NC(C)=C(C(=O)OC1CCOCC1)[C@H]2c1cccc(O)c1 [13a, tetrahydro-2H-pyran-4-yl (4S, 7R)-4-(3-hydroxyphenyl)-7-(2-methoxyphenyl)-2-methyl-5-oxo-1,4,5,6,7,8-hexahydro-3-quinolinecarboxylate]
disease score (erythema, surface area affected, psoriatic plaque formation) [2]: suppresses autoimmune-inflammatory disease severity
EC50 (CMV promoter): > 2500 nM
Kd (BRD3 BD1): 150 nM
EC50 (RBL cells): > 2500 nM
Kd (BRD3 BD2): 4 nM
relative affinity for BRD3 bromodomains BD1 and BD2 (BRD3 BD2): higher affinity for the BD2 domain
coronin 1 depletion by Western blot (coronin 1): showed coronin 1 depletion
EC50 (coronin 1 promoter): 65 nM
rel. potency GFP inhibition (coronin 1 promoter; [EC50 GFP inhibition 13a]/[EC50 GFP inhibition compound of interest], 13a = 1.00): 1.00
